Assay results from US7799792B2, “Metabotropic glutamate receptor oxadiazole ligands and their use as potentiators 841” (AstraZeneca AB, priority 2007, dated 2010).
Values after ≈ are worked out from the molar mass of the structure shown.

Tests used:
[1] = Aqueous solubility in pH 7.4 phosphate buffer; format: physicochemical; settings: thermodynamic from solid, equilibration 24 h at 25° C., read-out: Aq. solubility
Procedure: Solubility was determined in pH 7.4 phosphate buffer after equilibration for 24 h at 25° C. and HPLC-UV and LC-MSMS were used for quantitation.

human mGluR2 receptor = biological target: T1, human mGluR2 receptor (Homo sapiens, UniProt Q14416); experiment: [35S]-GTPγS binding assay of mGluR2 receptor activation (allosteric activator activity); format: biochemical; settings: membranes from CHO cells stably expressing human mGluR2; 1 μM glutamate; read-out: GTPgS EC50
T1 construct: expressed in transfected cells; host or cells: CHO cells, stably transfected; membranes
Procedure: A [^35S]-GTPγS binding assay was used to functionally assay mGluR2 receptor activation. The allosteric activator activity of compounds at the human mGluR2 receptor were measured using a [^35S]-GTPγS binding assay with membranes prepared from CHO cells which stably express the human mGluR2. The assay is based upon the principle that agonists bind to G-protein coupled receptors to stimulate GDP-GTP exchange at the G-protein. Since [^35S]-GTPγS is a non-hydrolyzable GTP analog, it can be used to provide an index of GDP-GTP exchange and, thus, receptor activation. The GTPγS binding assay therefore provides a quantitative measure of receptor activation.
Membranes were prepared from CHO cells stably transfected with human mGluR2. Membranes (30 μg protein) were incubated with test compound (3 nM to 300 μM) for 15 minutes at room temperature prior to the addition of 1 μM glutamate, and incubated for 30 min at 30° C. in 500 μl assay buffer (20 mM HEPES, 100 mM NaCl, 10 mM MgCl2), containing 30 μM GDP and 0.1 nM [^35S]-GTPγS (1250 Ci/mmol). Reactions were carried out in triplicate in 2 ml polypropylene 96-well plates. Reactions were terminated by vacuum filtration using a Packard 96-well harvester and Unifilter-96, GF/B filter microplates. The filter plates were washed 4×1.5 ml with ice-cold wash buffer (10 mM sodium phosphate buffer, pH 7.4). The filter plates were dried and 35 μl of scintillation fluid (Microscint 20) was added to each well. The amount of radioactivity bound was determined by counting plates on the Packard TopCount. Data was analyzed using GraphPad Prism, and EC50 and Emax values (relative to the maximum glutamate effect) were calculated using non-linear regression.

T1 sequence (Q14416 19-872): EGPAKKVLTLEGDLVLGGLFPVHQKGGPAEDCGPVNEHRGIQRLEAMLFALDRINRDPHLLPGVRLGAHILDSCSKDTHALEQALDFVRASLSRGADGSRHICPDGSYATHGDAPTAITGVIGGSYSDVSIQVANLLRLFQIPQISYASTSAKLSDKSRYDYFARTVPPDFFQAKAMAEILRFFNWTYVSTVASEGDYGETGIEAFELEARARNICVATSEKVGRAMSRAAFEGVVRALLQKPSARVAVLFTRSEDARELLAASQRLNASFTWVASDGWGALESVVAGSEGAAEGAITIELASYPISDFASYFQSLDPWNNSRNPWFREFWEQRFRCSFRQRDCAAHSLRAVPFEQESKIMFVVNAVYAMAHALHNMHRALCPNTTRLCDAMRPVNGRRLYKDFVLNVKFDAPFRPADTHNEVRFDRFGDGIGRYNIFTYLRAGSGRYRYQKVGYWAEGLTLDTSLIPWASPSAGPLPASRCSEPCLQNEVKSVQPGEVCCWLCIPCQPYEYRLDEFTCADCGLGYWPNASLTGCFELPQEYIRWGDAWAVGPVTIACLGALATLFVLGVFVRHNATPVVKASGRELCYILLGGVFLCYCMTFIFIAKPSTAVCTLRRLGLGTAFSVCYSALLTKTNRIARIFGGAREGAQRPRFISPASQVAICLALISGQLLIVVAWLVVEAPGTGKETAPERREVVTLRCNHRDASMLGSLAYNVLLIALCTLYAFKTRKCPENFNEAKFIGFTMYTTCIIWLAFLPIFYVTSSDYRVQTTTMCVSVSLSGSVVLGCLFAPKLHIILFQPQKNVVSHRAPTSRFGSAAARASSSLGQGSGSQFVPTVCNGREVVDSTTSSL

solubility at 24 h [1] | EC50 (human mGluR2 receptor) | Structure (SMILES)
148 µM (≈ 66.9 µg/mL) | 121 nM | Cc1cc(-c2noc(CN3CCNC(C)C3)n2)cc2c1C(=O)N(Cc1ccc(Cl)cc1)C2 (stereo not shown) [Example 10, 2-(4-chloro-benzyl)-7-methyl-5-[5-(3-methyl-piperazin-1-ylmethyl)-[1,2,4]oxadiazol-3-yl]-2,3-dihydroisoindol-1-one]
139 µM (≈ 70.6 µg/mL) | 226 nM | O=C1c2c(Cl)cc(-c3noc(CN4CCNCC4)n3)cc2CN1Cc1ccc(OC(F)(F)F)cc1 [Example 1, 7-Chloro-5-(5-piperazin-1-ylmethyl-[1,2,4]oxadiazol-3-yl)-2-(4-trifluoromethoxybenzyl)-2,3-dihydroisoindol-1-one]
271 µM (≈ 126 µg/mL) | 210 nM | Cc1cc(-c2noc(C(C)N3CCNCC3)n2)cc2c1C(=O)N([C@@H](C)c1ccc(Cl)cc1)C2 (stereo partly drawn) [Example 14, 2-[(S)-1-(4-Chloro-phenyl)-ethyl]-7-methyl-5-[5-(1-piperazin-1-yl-ethyl)-[1,2,4]oxadiazol-3-yl]-2,3-dihydro-isoindol-1-one]
158 µM (≈ 71.4 µg/mL) | 323 nM | Cc1cc(-c2noc(CN3CCNC[C@@H]3C)n2)cc2c1C(=O)N(Cc1ccc(Cl)cc1)C2 [Example 9, 2-(4-chloro-benzyl)-7-methyl-5-[5-(2-methyl-piperazin-1-ylmethyl)-[1,2,4]oxadiazol-3-yl]-2,3-dihydroisoindol-1-one]
96 µM (≈ 43.4 µg/mL) | 47.8 nM | Cc1cc(-c2noc(CN3CCNCC3)n2)cc2c1C(=O)N([C@@H](C)c1ccc(Cl)cc1)C2 [Example 6, 2-[(S)-1-(4-Chloro-phenyl)-ethyl]-7-methyl-5-(5-piperazin-1-ylmethyl-[1,2,4]oxadiazol-3-yl)-2,3-dihydro-isoindol-1-one]
166 µM (≈ 72.7 µg/mL) | 317 nM | Cc1cc(-c2noc(CN3CCNCC3)n2)cc2c1C(=O)N(Cc1ccc(Cl)cc1)C2 [Example 4, 2-(4-chlorobenzyl)-7-methyl-5-(5-piperazin-1-ylmethyl-[1,2,4]oxadiazol-3-yl)-2,3-dihydroisoindol-1-one]
230 µM (≈ 123 µg/mL) | 147 nM | CC1(C)CN(Cc2nc(-c3cc(Cl)c4c(c3)CN(Cc3ccc(OC(F)(F)F)cc3)C4=O)no2)CCN1 [Example 11, 7-chloro-5-[5-(3,3-dimethyl-piperazin-1-ylmethyl)-[1,2,4]oxadiazol-3-yl]-2-(4-trifluoro-methoxybenzyl)-2,3-dihydroisoindol-1-one]
228 µM (≈ 103 µg/mL) | 202 nM | Cc1cc(-c2noc(CN3CCNC[C@H]3C)n2)cc2c1C(=O)N(Cc1ccc(Cl)cc1)C2 [Example 8, 2-(4-chloro-benzyl)-7-methyl-5-[5-(2-methyl-piperazin-1-ylmethyl)-[1,2,4]oxadiazol-3-yl]-2,3-dihydroisoindol-1-one]
158 µM (≈ 73.3 µg/mL) | 352 nM | Cc1cc(-c2noc(CN3C[C@@H]4C[C@H]3CN4)n2)cc2c1C(=O)N([C@@H](C)c1ccc(Cl)cc1)C2 [Example 7, 2-[(S)-1-(4-Chloro-phenyl)-ethyl]-5-{5-[(1S,4S)-1-(2,5-diaza-bicyclo[2.2.1]hept-2-yl)methyl]-[1,2,4]oxadiazol-3-yl}-7-methyl-2,3-dihydro-isoindol-1-one]
240 µM (≈ 108 µg/mL) | 283 nM | Cc1cc(-c2noc(C(C)N3CCNCC3)n2)cc2c1C(=O)N(Cc1ccc(Cl)cc1)C2 (stereo not shown) [Example 13, 2-(4-Chloro-benzyl)-7-methyl-5-[5-(1-piperazin-1-yl-ethyl)-[1,2,4]oxadiazol-3-yl]-2,3-dihydro-isoindol-1-one]
141 µM (≈ 70.4 µg/mL) | 75 nM | Cc1cc(-c2noc(CN3C[C@@H]4C[C@H]3CN4)n2)cc2c1C(=O)N(Cc1ccc(OC(F)(F)F)cc1)C2 [Example 5, 5-[5-(2,5-diaza-bicyclo[2.2.1]hept-2-ylmethyl)-[1,2,4]oxadiazol-3-yl]-7-methyl-2-(4-trifluoromethoxybenzyl)-2,3-dihydroisoindol-1-one]
111 µM (≈ 54.1 µg/mL) | 147 nM | Cc1cc(-c2noc(CN3CCNCC3)n2)cc2c1C(=O)N(Cc1ccc(OC(F)(F)F)cc1)C2 [Example 3, 7-methyl-5-(5-piperazin-1-ylmethyl-[1,2,4]oxadiazol-3-yl)-2-(4-trifluoro-methoxybenzyl)-2,3-dihydroisoindol-1-one]
176 µM (≈ 80.7 µg/mL) | 431 nM | O=C1c2c(Cl)cc(-c3noc(CN4CCNCC4)n3)cc2CN1Cc1ccc(Cl)cc1 [Example 2, 7-chloro-2-(4-chlorobenzyl)-5-(5-piperazin-1-ylmethyl-[1,2,4]oxadiazol-3-yl)-2,3-dihydroisoindol-1-one]
182 µM (≈ 91.3 µg/mL) | 307 nM | Cc1cc(-c2noc(C(C)N3CCNCC3)n2)cc2c1C(=O)N(Cc1ccc(OC(F)(F)F)cc1)C2 (stereo not shown) [Example 12, 7-Methyl-5-[5-(1-piperazin-1-yl-ethyl)-[1,2,4]oxadiazol-3-yl]-2-(4-trifluoromethoxy-benzyl)-2,3-dihydro-isoindol-1-one]
